Source: article PMC9587031, “Antibiotic polymyxin arranges lipopolysaccharide into crystalline structures to solidify the bacterial membrane” (Nature Communications, 2022)
Converted amounts (≈) assume the structure as drawn. Positions of bridges follow the written chain, without caps; N, C: chain ends. Non-standard residues stand in square brackets, D forms with d. Residues, ends and D or L forms follow the SMILES beside them. *: point of attachment. Heptanoyl(6-Me) = CC(C)CCCCC(=O)*; Dab = NCC[C@H](N)C(=O)O

Assays:
E. coli MG1655 WT = assay: MIC, automated multi-well growth assay; assay type: cell-based, Escherichia coli; settings: for MIC: MG1655, 10 h
Experimental: All titration assays to measure the growth curve of E. coli MG1655 strains at different polymyxin concentrations were performed on a Tecan EVO 200 robotic platform in 96-well plates (cell culture microplates 96 well µClear® CELLSTAR®, Greiner Bio-One GmbH). Plates with serial dilutions of the tested polymyxin derivatives were prepared and overnight cultures of the strains were combined to a final OD600 ≈ 0.05. Titration culture plates were placed in a shaking platform equipped with a Kuhner ES-X shaking module (Adolf Kühner AG) mounted inside an aluminum housing (Tecan) and temperature-controlled using an “Icecube” (Life Imaging Services). Titration cultures were grown for 10 h at 37 °C with shaking at 300 rpm in clear-bottom 96-well plates, which were sealed with peelable foil with small slits (Agilent) to prevent liquid evaporation and guarantee sterility. OD600 measurements were recorded using a Tecan Infinite M200 Pro plater reader.

E. coli MG1655 MCR-1 = assay: MIC, automated multi-well growth assay; assay type: cell-based, Escherichia coli; settings: E. coli MG1655 containing the MCR-1 plasmid, growth curves (Fig. 1b)
Excerpt: In order to confer colistin resistance to the E. coli K-12 MG1655 strain and derivatives, an mcr-1 gene together with its native promoter region was cloned onto the pBR322 plasmid backbone, creating pAH213_mcr1. Briefly, the mcr-1 gene of colistin-resistant E. coli strain 2 HS-C was identified as gene E4F32_22195 on plasmid p2HS-C-1 (GenBank CP038181.1) and amplified together with ≈ 400 nucleotides of its immediate upstream region using primers prAH2159 and prAH2160. The backbone of pBR322 without its tetracycline resistance cassette was amplified using primers prAH1981 and prAH1982. Using 25 bp overhangs to the backbone included in prAH2159 / prAH2160, insert and backbone were ligated using Gibson assembly. The resulting plasmid pAH213_mcr1 confers colistin resistance to the E. coli K-12 MG1655 strain with a minimal inhibitory concentration of 5 µg/ml (empty vector and vector-free controls: 0.5 µg/ml). Robust growth of the E. coli K-12 MG1655 strains carrying pAH213_mcr1 was observed up to a concentration of 3 µg/ml. […]
All titration assays to measure the growth curve of E. coli MG1655 strains at different polymyxin concentrations were performed on a Tecan EVO 200 robotic platform in 96-well plates (cell culture microplates 96 well µClear® CELLSTAR®, Greiner Bio-One GmbH). […] OD600 measurements were recorded using a Tecan Infinite M200 Pro plater reader.

[1] = system: E. coli K-12 MG1655 carrying pAH213_mcr1; assay: Colistin MIC, validation of plasmid pAH213_mcr1; assay type: cell-based, Escherichia coli
Excerpt: (§1) In order to confer colistin resistance to the E. coli K-12 MG1655 strain and derivatives, an mcr-1 gene together with its native promoter region was cloned onto the pBR322 plasmid backbone, creating pAH213_mcr1. Briefly, the mcr-1 gene of colistin-resistant E. coli strain 2 HS-C was identified as gene E4F32_22195 on plasmid p2HS-C-1 (GenBank CP038181.1) and amplified together with ≈ 400 nucleotides of its immediate upstream region using primers prAH2159 and prAH2160. The backbone of pBR322 without its tetracycline resistance cassette was amplified using primers prAH1981 and prAH1982. Using 25 bp overhangs to the backbone included in prAH2159 / prAH2160, insert and backbone were ligated using Gibson assembly. The resulting plasmid pAH213_mcr1 confers colistin resistance to the E. coli K-12 MG1655 strain with a minimal inhibitory concentration of 5 µg/ml (empty vector and vector-free controls: 0.5 µg/ml). Robust growth of the E. coli K-12 MG1655 strains carrying pAH213_mcr1 was observed up to a concentration of 3 µg/ml. The plasmids were transferred to the cells using the transformation and storage solution (TSS) method.

[2] = system: OM patches from E. coli MG1655 WT strain; assay: AFM imaging of crystalline structure formation on OM patches; parameters: species or system Escherichia coli; settings: DPBS supplemented with 5 mM Mg2+ (MgCl2)
Experimental: E. coli MG1655 strains were transformed with the pY200 plasmid that carries an mCherry gene preceded by the periplasmic export signal of the skp protein under control of the lux promoter. This construct enables over-expression of mCherry into the periplasmic space, which in turn increases the OMV production. Cultures were grown in LB medium (Difco) with 50 µg/ml spectinomycin (Fischer Scientific) at 37 °C. Expression of mCherry was induced at an OD600 ≈ 0.4 by N-(β ketocaproyl)-L-homoserine lactone (HSL, Cayman Chemical). After induction, the cultures were grown until they reached the early stationary phase, and bacteria were removed by centrifugation at 10,000 g for 10 min. […]
OMVs produced from different E. coli MG1655 strains were adsorbed onto freshly cleaved mica for 15 min in DPBS buffer at room temperature. […] The images were recorded using two different AFM cantilevers: PEAKFORCE‐HiRs‐F‐A (Bruker) with a nominal spring constant of 0.4 N/m, a resonance frequency of ≈ 165 kHz in liquid, and a sharpened silicon tip with a nominal radius of ≈ 1 nm or SCANASYST-FLUID + (Bruker) with a nominal spring constant of 0.7 N/m, a resonance frequency of ≈ 150 kHz in liquid, and a sharpened silicon tip with a nominal radius of ≈ 2 nm. […] Images were recorded at 2 kHz oscillation frequency, by applying an imaging force of 100–120 pN with a vertical amplitude of 30 nm. […]

[3] = system: E. coli K-12 MG1655 empty vector and vector-free controls; assay: Colistin MIC, validation of plasmid pAH213_mcr1, controls; assay type: cell-based, Escherichia coli
Excerpt: as §1

| Compound | MIC (E. coli MG1655 WT) | polymyxin E concentration in which the strain was able to grow (E. coli MG1655 MCR-1) | MIC from bacterial growth curves (E. coli MG1655 WT; E. coli K-12 MG1655 WT, growth curves with increasing antibiotic concentration (Fig. 1b)) | concentration up to which robust growth was observed ([1]; E. coli K-12 MG1655 strains carrying pAH213_mcr1) | minimal inhibitory concentration ([1]; E. coli K-12 MG1655 with plasmid pAH213_mcr1) | polymyxin E concentration at which crystalline structures formed [2] | minimal inhibitory concentration [3] |
| --- | --- | --- | --- | --- | --- | --- | --- |
| CC(C)C[C@@H]1NC(=O)[C@@H](CC(C)C)NC(=O)[C@H](CCN)NC(=O)[C@@H](NC(=O)[C@H](CCN)NC(=O)[C@@H](NC(=O)[C@@H](N)CCN)[C@@H](C)O)CCNC(=O)[C@H]([C@@H](C)O)NC(=O)[C@H](CCN)NC(=O)[C@H](CCN)NC1=O [Polymyxin E intermediate-length] (H-[Dab]T[Dab][Dab][Dab][dL]L[Dab][Dab]T; lactam 4-C) | 8 µg/mL (≈ 7.77 µM) |  |  |  |  |  |  |
| CC(C)CCCCC(=O)N[C@@H](CCN)C(=O)N[C@H](C(=O)N[C@@H](CCN)C(=O)N[C@H]1CCNC(=O)[C@@H]([C@H](C)O)NC(=O)[C@H](CCN)NC(=O)[C@H](CCN)NC(=O)[C@H](CC(C)C)NC(=O)[C@@H](CC(C)C)NC(=O)[C@H](CCN)NC1=O)[C@@H](C)O [Polymyxin E with stereochemistry change] ({Heptanoyl(6-Me)}-[Dab]T[Dab][Dab][Dab][dL]L[Dab][Dab][dT]; lactam 4-C) | 32 µg/mL (≈ 27.7 µM) |  |  |  |  |  |  |
| Polymyxin E |  | 32 mg/L | 0.5 to 1 µg/mL | ≤ 3 µg/mL | 5 µg/mL | 1.2 mg/L | 0.5 µg/mL |
